Columns and labels:
[1] = target: T1, von Hippel-Lindau disease tumor suppressor/Androgen receptor (Homo sapiens, UniProt P10275+P40337); experiment: Protac activity at VHL (unknown origin)/Androgen receptor (unknown origin) assessed as full-length Androgen receptor degradation measured by immunoblotting method; assay type: protein assay
Target sequence in this assay (P10275 whole entry, canonical isoform): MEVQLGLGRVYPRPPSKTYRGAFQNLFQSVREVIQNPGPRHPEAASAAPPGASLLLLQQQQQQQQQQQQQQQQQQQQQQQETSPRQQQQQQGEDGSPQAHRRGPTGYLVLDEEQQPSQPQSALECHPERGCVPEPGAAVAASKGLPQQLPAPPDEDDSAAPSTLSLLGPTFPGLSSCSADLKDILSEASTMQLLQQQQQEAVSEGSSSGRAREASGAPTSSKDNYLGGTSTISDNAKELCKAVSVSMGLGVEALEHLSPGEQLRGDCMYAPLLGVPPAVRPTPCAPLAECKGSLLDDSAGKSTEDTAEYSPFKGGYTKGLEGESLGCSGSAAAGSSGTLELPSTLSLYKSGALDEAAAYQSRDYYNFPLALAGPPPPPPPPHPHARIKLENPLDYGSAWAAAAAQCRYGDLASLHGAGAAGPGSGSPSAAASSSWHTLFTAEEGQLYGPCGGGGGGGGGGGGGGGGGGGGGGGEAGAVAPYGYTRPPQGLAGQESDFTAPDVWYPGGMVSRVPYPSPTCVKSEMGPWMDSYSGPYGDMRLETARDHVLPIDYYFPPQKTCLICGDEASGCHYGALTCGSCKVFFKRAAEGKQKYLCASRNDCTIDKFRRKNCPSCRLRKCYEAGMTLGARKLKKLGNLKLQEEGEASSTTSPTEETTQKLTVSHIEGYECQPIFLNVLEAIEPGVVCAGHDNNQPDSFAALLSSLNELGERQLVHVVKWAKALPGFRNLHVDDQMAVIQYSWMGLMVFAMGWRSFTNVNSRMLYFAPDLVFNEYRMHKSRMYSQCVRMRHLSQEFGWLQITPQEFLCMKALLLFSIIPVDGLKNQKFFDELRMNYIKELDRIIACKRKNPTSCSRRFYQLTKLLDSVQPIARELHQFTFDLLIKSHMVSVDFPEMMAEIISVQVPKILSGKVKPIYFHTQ
Target sequence in this assay (P40337 whole entry, canonical isoform): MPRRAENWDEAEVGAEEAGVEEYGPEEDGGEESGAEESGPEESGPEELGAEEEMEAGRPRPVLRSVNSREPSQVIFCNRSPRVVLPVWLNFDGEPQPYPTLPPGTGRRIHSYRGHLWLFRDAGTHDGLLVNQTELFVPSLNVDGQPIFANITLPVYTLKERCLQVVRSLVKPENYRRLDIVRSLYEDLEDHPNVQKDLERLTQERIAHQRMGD

[2] = target: T1, von Hippel-Lindau disease tumor suppressor/Androgen receptor; experiment: Protac activity at VHL (unknown origin)/Androgen receptor splice variant7 (unknown origin) assessed as Androgen receptor degradation measured by immunoblotting method
Target sequence in this assay (P10275 whole entry, looked up, change not shown, canonical isoform): as the sequence (P10275 whole entry, canonical isoform) above
Target sequence in this assay (P40337 whole entry, looked up, change not shown, canonical isoform): as the sequence (P40337 whole entry, canonical isoform) above

[3] = target: T1, von Hippel-Lindau disease tumor suppressor/Androgen receptor; experiment: Protac activity at VHL/Androgen receptor in human LNCaP cells assessed as Androgen receptor degradation; assay type: cell-based
Target sequence in this assay (P10275 whole entry, canonical isoform): as the sequence (P10275 whole entry, canonical isoform) above
Target sequence in this assay (P40337 whole entry, canonical isoform): as the sequence (P40337 whole entry, canonical isoform) above

[4] = target: T1, von Hippel-Lindau disease tumor suppressor/Androgen receptor; experiment: Protac activity at VHL/Androgen receptor in human VCaP cells assessed as Androgen receptor degradation; assay type: cell-based
Target sequence in this assay (P10275 whole entry, canonical isoform): as the sequence (P10275 whole entry, canonical isoform) above
Target sequence in this assay (P40337 whole entry, canonical isoform): as the sequence (P40337 whole entry, canonical isoform) above

DC50 [1] [nM] | DC50 [2] [nM] | DC50 [3] [nM] | DC50 [4] [nM] | SMILES
2000 | 370 | – | – | Cc1ncsc1-c1ccc([C@H](C)NC(=O)[C@@H]2C[C@@H](O)CN2C(=O)[C@@H](NC(=O)CCCCNC(=O)COc2c(-c3csc(N4CCOCC4)n3)ccc(F)c2F)C(C)(C)C)cc1
– | – | < 1 | < 1 | Cc1ncsc1-c1ccc([C@H](CC(=O)N2CCC(N3CCC(C#Cc4ccc(C(=O)N[C@H]5C(C)(C)[C@H](Oc6ccc(C#N)c(Cl)c6)C5(C)C)cc4)CC3)CC2)NC(=O)[C@@H]2C[C@@H](O)CN2C(=O)[C@@H](NC(=O)C2(F)CC2)C(C)(C)C)cc1

— ChEMBL document CHEMBL5137058, “Therapeutic Strategies to Target the Androgen Receptor” (J Med Chem, 2022)
